Assay results taken from patent publication US8865901B2, “Gain-of-function Bcl-2 inhibitors” (priority 2009, dated 2014).
Where “and” joins values, the source holds several entries; their conditions need not be identical. Equal values may be shown once. Read-outs that look alike come from different tables or passages of the source.

Columns and labels:
[1] = tested on: TAMH cells overexpressing Bcl-xL (TAMH-Bcl-xL, Tabx2s); test: Cytotoxicity / apoptosis induction in TAMH cells overexpressing Bcl-xL; assay type: cell-based; conditions: for Neo/Bcl-xL: selectivity ratio
Description: (§1) To examine the sensitivity of cells over-expressing Bcl-xL to various mitochondrial inhibitors and apoptosis inducers, cell lines over-expressing Bcl-xL were prepared and tested according to Hockenberry et al. U.S. Pat. No. 7,241,804, hereby incorporated by reference in its entirety. Competitive binding of compounds with fluorescent antimycin A3, and competitive binding of compounds with BH3 peptide and Bcl-2. Competitive binding of compounds with BH-3 peptide were also measured using Bcl-xL as previously described. Id.
(§2) Cell lines were grown in RPMI 1640 medium (Gibco, Grand Island, N.Y.) supplemented with 5% fetal bovine serum (Hyclone, Logan, Utah). Also shown is the ratio of TAMH cells expressing Bcl-xL to those expressing A142L (WT:142L). The assay measures the potency of various compounds with respect to inducing apoptosis in these cells.
(§3) The compounds described in Example 2 were tested for their ability to inhibit Bcl-2 gain-of-function in TAMH cells, TAMH cells overexpressing […] (TAMH-Bcl-xL), TAMH cells transfected with Neo vector (Neo), TAMH cells over expressing a variant of Bcl-xL (A142L) using the methods of Example 1. 3-6.
(§4) The effects of the compounds described in Example 8 on TAMH cells, TAMH cells overexpressing Bcl-xL (TAMH-Bcl-xL), TAMH cells transfected with Neo vector (Neo), TAMH cells over expressing a variant of Bcl-xL (A142L) is shown in Table 8
(§5) The effects of the compounds described in Example 10 on TAMH cells, TAMH cells overexpressing Bcl-xL (TAMH-Bcl-xL), TAMH cells transfected with Neo vector (Neo), TAMH cells over expressing a variant of Bcl-xL (A142L) is shown in the following Table 10

[2] = tested on: TAMH cells transfected with Neo vector (Neo); test: Cytotoxicity / apoptosis induction in TAMH cells transfected with Neo vector; assay type: cell-based; conditions: for IC50: read-out: IC50 TAMH Neo
Description: as §1, §2, §3, §4, §5

[3] = Table 10, read-out: IC50 TAMH Bcl-XL
[4] = Table 15, read-out: IC50 TAMH Bcl-XL
[5] = Table 13, read-out: IC50 TAMH Bcl-xL

Compound `CCN(Cc1cc(Cl)cc(C)c1O)Cc1c(O)ccc2ccccc12` [Compound 88850] has a Neo/Bcl-XL ([1]; Table 18) of 2.7, an EC50 ([1]; Table 18, read-out: Bcl-XL) of 4.5 µM and an EC50 ([2]; Table 18, read-out: Neo) of 12 µM.

In the case of `Oc1ccc(Cl)cc1Sc1cc(Cl)ccc1O` [Compound 55636], the EC50 ([1]; Table 8, read-out: TAMH Bcl-xL) is reported as 1.9 µM, the Neo/Bcl-xL ([1]; Table 8) is reported as 7.7 and the “Fold Select. (Neo/Bcl-XL)” value ([1]; Table 10) is reported as 7.7. The IC50 [1, 3] was 1.9 µM, the EC50 ([2]; Table 8, read-out: TANH Neo) was 14.7 µM and the IC50 ([2]; Table 10) was 14.7 µM.

`O=[N+]([O-])c1ccc(S(=O)(=O)C2CCCCC2Cl)c([N+](=O)[O-])c1` (centres unmarked) [Compound 405645] was tested, and the “Fold Selectivity (Neo/Bcl-XL)” value ([1]; Table 15) was 2.1, the IC50 [1, 4] was 2.9 µM and the IC50 ([2]; Table 15) was 6.1 µM.

In the case of `CC(=O)c1cc(Cc2cc(C)cc(C)c2O)c(O)c(Cc2cc(C)cc(C)c2O)c1` [Compound 48705], the “Fold Select. (Neo/Bcl-xL)” value ([1]; Table 13) is reported as 0.

`CC(=O)c1cc(Cl)cc(Cc2cc(Cl)cc(Cc3cc(Cl)cc(C(C)=O)c3O)c2O)c1O` [Compound 48698] was tested, and the “Fold Select. (Neo/Bcl-xL)” value ([1]; Table 13) was 8.1, the IC50 [1, 5] was 0.7 µM and the IC50 ([2]; Table 13) was 5.7 µM.

`[O-][S+](c1cc(Cl)ccc1O)c1cc(Cl)ccc1O` [Compound 24019] was tested, and the “Fold Select. (Neo/Bcl-XL)” value ([1]; Table 10) was 5.7, the IC50 [1, 3] was 5.6 µM and the IC50 ([2]; Table 10) was 32.2 µM.

For `Cc1c(Cl)c(C)c(Sc2c(C)c(Cl)c(C)c(Br)c2O)c(O)c1Br` [Compound 9874], the “Fold Select. (Neo/Bcl-XL)” value ([1]; Table 10) was 2.8, the IC50 [1, 3] was 0.7 µM and the IC50 ([2]; Table 10) was 2 µM.

In the case of `Cc1cc(C(C)(C)C)cc(Cc2cc(C(C)(C)C)cc(Cc3cc(C(C)(C)C)cc(C)c3O)c2O)c1O` [Compound 634604], the “Fold Select. (Neo/Bcl-xL)” value ([1]; Table 13) is reported as 6.4, the IC50 [1, 5] is reported as 5 µM and the IC50 ([2]; Table 13) is reported as 32.1 µM.

`Cc1cc(C)c(O)c(Cc2cccc(Cc3cc(C)cc(C)c3O)c2O)c1` [Compound 48168] was tested, and the “Fold Select. (Neo/Bcl-xL)” value ([1]; Table 13) was 0.

`CC(=O)Nc1ccc(Sc2ccc(NC(C)=O)cc2O)c(O)c1` [Compound 4581] was tested, and the “Fold Select. (Neo/Bcl-XL)” value ([1]; Table 11) was 0.

For `Oc1ccc(Cl)cc1Sc1cc(Cl)ccc1O` [Compound 4112], the “Fold Select. (Neo/Bcl-XL)” value ([1]; Table 10) was 2.3, the IC50 [1, 3] was 2 µM and the IC50 ([2]; Table 10) was 4.7 µM.

In the case of `Oc1c(Cl)cc(Cl)cc1Sc1cc(Cl)cc(Cl)c1O` [Compound 9872], the “Fold Select. (Neo/Bcl-XL)” value ([1]; Table 10) is reported as 3.3, the IC50 [1, 3] is reported as 2.3 µM and the IC50 ([2]; Table 10) is reported as 7.5 µM.

In the case of `CC(C)c1ccc(Sc2ccc(C(C)C)cc2O)c(O)c1` [Compound 39635], the “Fold Select. (Neo/Bcl-XL)” value ([1]; Table 10) is reported as 1.3, the IC50 [1, 3] is reported as 4.3 µM and the IC50 ([2]; Table 10) is reported as 7.8 µM.

For `Oc1ccc(Cl)cc1Cc1cc(Cl)cc(Cc2cc(Cl)ccc2O)c1O` [Compound 47932], the EC50 ([1]; Table 8, read-out: TAMH Bcl-xL) was 0.5 µM, the Neo/Bcl-xL ([1]; Table 8) was 7 and the “Fold Select. (Neo/Bcl-xL)” value ([1]; Table 13) was 7. It also gave an IC50 [1, 5] of 0.5 µM, an EC50 ([2]; Table 8, read-out: TANH Neo) of 3.5 µM and an IC50 ([2]; Table 13) of 3.5 µM.

`Cc1cc(O)c(Sc2c(O)cc(C)c(Cl)c2C)c(C)c1Cl` [Compound 52168] was tested, and the “Fold Select. (Neo/Bcl-XL)” value ([1]; Table 10) was 5.2, the IC50 [1, 3] was 1 µM and the IC50 ([2]; Table 10) was 5.2 µM.

For `Cc1cc(O)c(Sc2c(O)cc(C)c(Cl)c2C)c(C)c1Cl` [Compound 9875], the “Fold Select. (Neo/Bcl-XL)” value ([1]; Table 10) was 6.3, the IC50 [1, 3] was 0.9 µM and the IC50 ([2]; Table 10) was 5.7 µM.

In the case of `Cc1cccc(Cc2cccc(C)c2O)c1O` [Compound 85476], the “Fold Select. (Neo/Bcl-XL)” value ([1]; Table 10) is reported as 2.9, the IC50 [1, 3] is reported as 18.8 µM and the IC50 ([2]; Table 10) is reported as 55.3 µM.

`O=S(=O)(c1cc(Cl)ccc1O)c1cc(Cl)ccc1O` [Compound 406932] was tested, and the “Fold Select. (Neo/Bcl-XL)” value ([1]; Table 10) was 4.4, the IC50 [1, 3] was 13.6 µM and the “Fold Selectivity (Neo/Bcl-XL)” value ([1]; Table 15) was 4.4. The IC50 [1, 4] was 13.6 µM, the IC50 ([2]; Table 10) was 57.2 µM and the IC50 ([2]; Table 15) was 57.2 µM.

In the case of `Cc1cc(C)c(O)c(CNCc2ccccc2)c1` [Compound 47911], the EC50 ([1]; Mus musculus, TAMH, Table 8, read-out: TAMH Bcl-xL) is reported as 4.1 µM, the EC50 ([1]; Mus musculus, TAMH, Table 20, read-out: Bcl-XL) is reported as 4.1 µM and the Neo/Bcl-xL ([1]; Table 8) is reported as 7.8. For the same compound, the Neo/Bcl-XL ([1]; Table 20) was 7.8, the EC50 ([2]; Mus musculus, TAMH, Table 8, read-out: TANH Neo) was 31.9 µM and the EC50 ([2]; Mus musculus, TAMH, Table 20, read-out: Neo) was 31.9 µM.

For `CC(C)c1ccc(S(=O)(=O)c2ccc([N+](=O)[O-])cc2[N+](=O)[O-])cc1` [Compound 85653], the “Fold Selectivity (Neo/Bcl-XL)” value ([1]; Table 15) was 2.7, the IC50 [1, 4] was 4.5 µM and the IC50 ([2]; Table 15) was 12 µM.

In the case of `Cc1cc(O)c(O)c(Oc2cc(C)cc(O)c2O)c1` [Compound 330927], the “Fold Select. (Neo/Bcl-XL)” value ([1]; Table 10) is reported as 5 and the IC50 [1, 3] is reported as 19.8 µM.

`Cc1cc(Cc2cc(C)c(N)cc2N)c(N)cc1N` [Compound 7215] was tested, and the “Fold Select. (Neo/Bcl-XL)” value ([1]; Table 11) was 0.

With `Cc1cc(Cc2cc(C)cc(C(C)(C)C)c2O)c(O)c(Cc2cc(C)cc(C(C)(C)C)c2O)c1` [Compound 62914] the “Fold Select. (Neo/Bcl-xL)” value ([1]; Table 13) was > 20 and 22.7.

For `COc1ccccc1Cc1ccccc1OC` [Compound 78834], the “Fold Select. (Neo/Bcl-XL)” value ([1]; Table 11) was 0.
